Where two headings read alike, the source gives them in different places.
Columns and labels:
[1] = tested on: Mycosphaerella graminicola; Anamorph: Septoria tritici; assay: Leaf Blotch of Wheat fungicidal activity (SEPTTR); type: in vivo; details: Zymoseptoria tritici; for pest or weed control at 100 ppm: rate 100 ppm; for pest or weed control at 121.5 g/ha: rate 121.5 g/H
Protocol: Evaluation of Fungicidal Activity: Leaf Blotch of Wheat (Mycosphaerella graminicola; Anamorph: Septoria tritici; Bayer code […]) Technical grades of materials were dissolved in acetone, which were then mixed with nine volumes of water containing 110 ppm Triton X-100. The fungicide solutions were applied onto wheat seedlings using an automated booth sprayer to run-off. All sprayed plants were allowed to air dry prior to further handling. All fungicides were evaluated using the aforementioned method for their activity vs. all target diseases. Wheat leaf blotch and brown rust activity were also evaluated using track spray applications, in which case the fungicides were formulated as EC formulations, containing 0.1% Trycol 5941 in the spray solutions. Wheat plants (variety Yuma) were grown from seed in a greenhouse in 50% mineral soil/50% soil-less Metro mix until the first leaf was fully emerged, with 7-10 seedlings per pot. These plants were inoculated with an aqueous spore suspension of Septoria tritici either prior to or after fungicide treatments. After inoculation the plants were kept in 100% relative humidity (one day in a dark dew chamber followed by two to three days in a lighted dew chamber at 20° C.) to permit spores to germinate and infect the leaf. The plants were then transferred to a greenhouse set at 20° C. for disease to develop. When disease symptoms were fully expressed on the 1st leaves of untreated plants, infection levels were assessed on a scale of 0 to 100 percent disease severity. Percent disease control was calculated using the ratio of disease severity on treated plants relative to untreated plants.

[2] = tested on: Puccinia triticina; assay: Wheat Brown Rust fungicidal activity (PUCCRT); type: in vivo; details: Puccinia triticina; for pest or weed control at 100 ppm: rate 100 ppm; for pest or weed control at 121.5 g/ha: rate 121.5 g/H
Protocol: Technical grades of materials were dissolved in acetone, which were then mixed with nine volumes of water containing 110 ppm Triton X-100. The fungicide solutions were applied onto wheat seedlings using an automated booth sprayer to run-off. All sprayed plants were allowed to air dry prior to further handling. All fungicides were evaluated using the aforementioned method for their activity vs. all target diseases. Wheat leaf blotch and brown rust activity were also evaluated using track spray applications, in which case the fungicides were formulated as EC formulations, containing 0.1% Trycol 5941 in the spray solutions. Wheat plants (variety Yuma) were grown from seed in a greenhouse in 50% mineral soil/50% soil-less Metro mix until the first leaf was fully emerged, with 7-10 seedlings per pot. These plants were inoculated with an aqueous spore suspension of Septoria tritici either prior to or after fungicide treatments. After inoculation the plants were kept in 100% relative humidity (one day in a dark dew chamber followed by two to three days in a lighted dew chamber at 20° C.) to permit spores to germinate and infect the leaf. The plants were then transferred to a greenhouse set at 20° C. for disease to develop. When disease symptoms were fully expressed on the 1st leaves of untreated plants, infection levels were assessed on a scale of 0 to 100 percent disease severity. Percent disease control was calculated using the ratio of disease severity on treated plants relative to untreated plants. Evaluation of Fungicidal Activity: Wheat Brown Rust (Puccinia triticina; Synonym: Puccinia recondite f sp. tritici; Bayer code PUCCRT) Wheat plants (variety Yuma) were grown from seed in a greenhouse in 50% mineral soil/50% soil-less Metro mix until the first leaf was fully emerged, with 7-10 seedlings per pot. These plants were inoculated with an aqueous spore suspension of Puccinia triticina either prior to or after fungicide treatments. After inoculation the plants were kept in a dark dew room at 22° C. with 100% relative humidity overnight to permit spores to germinate and infect the leaf. The plants were then transferred to a greenhouse set at 24° C. for disease to develop. Fungicide formulation, application and disease assessment followed the procedures as described in the Example A.

[3] = 24 h, 1 Day Protectant, read-out: Disease control SEPTTR 1DP
[4] = 72 h, 3 Day Curative, read-out: Disease control SEPTTR 3DC
[5] = 24 h, 1 Day Protectant, read-out: Disease control PUCCRT 1DP
[6] = 72 h, 3 Day Curative, read-out: Disease control PUCCRT 3DC

SMILES | pest or weed control at 100 ppm [1, 3] | pest or weed control at 100 ppm [1, 4] | pest or weed control at 100 ppm [2, 5] | pest or weed control at 100 ppm [2, 6] | pest or weed control at 121.5 g/ha [1, 3] | pest or weed control at 121.5 g/ha [1, 4] | pest or weed control at 121.5 g/ha [2, 5] | pest or weed control at 121.5 g/ha [2, 6]
COc1ccnc(C(=O)N[C@H]2COC[C@H](Cc3ccc(C)cc3)[C@@H](Oc3ccccc3)[C@H](C)OC2=O)c1O [Compound F24] | 80 to 100% | 0 to 80% | 80 to 100% | 0 to 80% |  |  |  | 
CCCCCO[C@@H]1[C@@H](CC2CCCC2)COC[C@H](NC(=O)c2nccc(OC)c2OCOC(C)=O)C(=O)O[C@H]1C [Compound F116] | 80 to 100% | 80 to 100% | 80 to 100% | 80 to 100% | 80 to 100% | 80 to 100% | 80 to 100% | 80 to 100%
COc1ccnc(C(=O)N[C@H]2COC[C@H](CCC(C)C)[C@@H](OCC(C)C)[C@H](C)OC2=O)c1O [Compound F34] | 80 to 100% | 80 to 100% | 80 to 100% | 80 to 100% |  |  |  | 
COc1ccnc(C(=O)N[C@H]2COC[C@H](Cc3cccc4ccccc34)[C@@H](OCC(C)C)[C@H](C)OC2=O)c1OCOC(C)=O [Compound F87] | 80 to 100% | 80 to 100% | 80 to 100% | 80 to 100% | 80 to 100% | 80 to 100% | 80 to 100% | 0 to 80%
COc1ccnc(C(=O)N[C@H]2COC[C@H](Cc3ccc(C(F)(F)F)cc3)[C@@H](OC3CCCC3)[C@H](C)OC2=O)c1OCOC(C)=O [Compound F100] | 80 to 100% | 80 to 100% | 80 to 100% | 80 to 100% | 80 to 100% | 0 to 80% | 80 to 100% | 0 to 80%
COc1ccnc(C(=O)N[C@H]2COC[C@H](CCC(C)C)[C@@H](Oc3ccc(C)cc3)[C@H](C)OC2=O)c1OC(C)=O [Compound F69] | 80 to 100% | 80 to 100% | 80 to 100% | 80 to 100% | 80 to 100% | 80 to 100% | 80 to 100% | 0 to 80%
COc1ccnc(C(=O)N[C@H]2COC[C@H](CCC(C)C)[C@@H](OC(=O)C3CC3)[C@H](C)OC2=O)c1O [Compound F36] | 80 to 100% | 80 to 100% | 80 to 100% | 0 to 80% |  |  |  | 
COc1ccnc(C(=O)N[C@H]2COC[C@H](CCC(C)C)[C@@H](OC3CCCC3)[C@H](C)OC2=O)c1OC(C)=O [Compound F71] | 80 to 100% | 80 to 100% | 80 to 100% | 80 to 100% |  |  |  | 
COc1ccnc(C(=O)N[C@H]2COC[C@H](CCc3ccccc3)[C@@H](Oc3ccc(C)cc3)[C@H](C)OC2=O)c1OC(C)=O [Compound F58] | 80 to 100% | 80 to 100% | 80 to 100% | 80 to 100% | 80 to 100% | 80 to 100% | 80 to 100% | 0 to 80%
COc1ccnc(C(=O)N[C@H]2COC[C@H](Cc3ccc(C(F)(F)F)cc3)[C@@H](OC(=O)C(C)C)[C@H](C)OC2=O)c1OC(C)=O [Compound F67] | 80 to 100% | 0 to 80% | 80 to 100% | 80 to 100% |  |  |  | 
COc1ccnc(C(=O)N[C@H]2COC[C@H](Cc3ccc(C)cc3)[C@@H](OC3CCCC3)[C@H](C)OC2=O)c1OC(C)=O [Compound F64] | 80 to 100% | 80 to 100% | 80 to 100% | 80 to 100% |  |  |  | 

— patent US9179674B2, “Macrocyclic picolinamide compounds with fungicidal activity” (DOW AGROSCIENCES LLC, priority 2013, dated 2015)
